In patent publication EP1914235A1, “CHIRAL TETRA-HYDRO BETA-CARBOLINE DERIVATIVES AND APPLICATIONS THEREOF AS ANTIPARASITIC COMPOUNDS” (Université de Lille 2 Droit et Santé, priority 2006, dated 2008):
≈ marks a conversion by molar mass, not a printed value. Where two headings read alike, the source gives them in different places.

Experiments:
[1] = test system: P. falciparum 3D7 clone of NF54; test: [3H]hypoxanthine drug sensitivity assay, 3D7 clone; type: cell-based; conditions: Plasmodium falciparum, read-out: IC50 3D7(µg/ml)
Procedure: (§1) The cultures are naturally asynchronous (65-75% ring stage) and are maintained in continuous log phase growth in RPMI-1640 medium (as developed by Moore et. al. at Roswell Park Memorial Institute, sold by Sigma Aldrich) supplemented with 5% washed human A+ erythrocytes, 25 mM Hepes, […] NaHCO3, and AlbuMAXII (lipid-rich bovine serum albumin) sold GIBCO, Grand Island, NY (CM). All cultures and assays were conducted at 37°C under an atmosphere of 5% CO2 and 5% O2, with a balance of N2.
(§2) The compounds were further diluted to the appropriate concentration using complete medium RPMI-1640 supplemented with 15nM cold hypoxanthine and AlbuMAXII.
Assays were performed in sterile 96-well microtitre plates; each plate contained 100 µl of parasite culture (0.5% parasitemia, 2.5% hematocrit). Each compound was tested in triplicate and parasite growth compared to control and blank (uninfected erythrocytes) wells. After 24h of incubation at 37°C, […] of [^3H]hypoxanthine was added to each well. Cultures were incubated for a further 24 h before they were harvested onto glass-fiber filter mats. The radioactivity was counted using a Wallac Microbeta® 1450 scintillation counter. […] Percentage inhibition was calculated from comparison to blank and control wells, and IC50 values calculated using Microsoft XLFit ® line fitting software (IDBS, UK).
The preliminary screen used the 3D7 strain. The compounds were tested at 6 concentrations (30, 10, 3, 1, 0.3, and 0.1 µg/ml).
(§3) Both the 3D7 clone and the K1 line were used. The compounds were diluted three-fold over at 12 different concentrations with an appropriate starting concentration based on the preliminary screen. The IC50 was determined by a sigmoidal dose response analysis using Microsoft XLFit™ (IDBS, UK).

P. falciparum K1 strain = test: [3H]hypoxanthine drug sensitivity assay, K1 strain; type: cell-based; conditions: Plasmodium falciparum
Procedure: as §1, §2
Assays were performed in sterile 96-well microtitre plates; each plate contained 100 µl of parasite culture (0.5% parasitemia, 2.5% hematocrit). Each compound was tested in triplicate and parasite growth compared to control and blank (uninfected erythrocytes) wells. After 24h of incubation at 37°C, […] of [^3H]hypoxanthine was added to each well. Cultures were incubated for a further 24 h before they were harvested onto glass-fiber filter mats. The radioactivity was counted using a Wallac Microbeta® 1450 scintillation counter. The results were recorded as counts per minute (CPM) per well at each compound concentration, control and blank wells. Percentage inhibition was calculated from comparison to blank and control wells, and IC50 values calculated using Microsoft XLFit ® line fitting software (IDBS, UK).
as §3

[2] = test system: Plasmodium berghei ANKA strain; test: In vivo antiparasitic activity in infected mice (4-day dosing, parasitemia on day 5); conditions: mice infected with P. berghei ANKA; for Activity at the dose 50 mg/kg (%): 50 mg/kg every day for 4 days
Procedure: Female mice (TFW or BALB/c, specific pathogen free), 18-20 g, or
Infection: Blood was taken from donor mice and diluted in RPMI-1640 medium to a parasitemia of 1% (the equivalent of 1x10^7 infected erythrocytes/ml) whilst kept on ice. An inoculum of 0.2 ml was administered to each mouse by the intravenous route. At 2-4 hours post-inoculation dosing commences.
Evaluation endpoint: On day 5 blood smears of all animals (2 slides/mouse) were prepared, fixed with methanol and stained with 10% Giemsa's stain. Parasitemia was determined microscopically by counting 1000 red blood cells under oil immersion at 1000x magnification.
Each of the tested compounds of formula (I) according to the invention was prepared as a stock solution of 5 mg/ml in 10% DMSO/PBS. Insoluble compounds of formula (I) were milled with stainless steel balls for up to 24 hours to reduce particle size. Fresh dilutions were prepared each day. The route of administration of tested compounds is intra peritoneal (i.p.).
Compounds were formulated at 10 mg/kg or at 50 mg/kg in a standard suspension vehicle (0.5% carboxymethylcellulose, 0.5% benzyl alcohol, 0.4% Tween® 80 in 0.9% NaCl) for both oral and i.p. administration.
Dosing was over a 4 day period as above, and evaluation was also as above.

[3] = P. falciparum 3D7, sensitive to all anti-malarials, 48 h, [3H]hypoxanthine uptake

Compound | IC50 [1, 3] [µg/mL] | IC50 (P. falciparum K1 strain; K1, read-out: IC50 K1) [µg/mL] | other results
O=C1[C@H]2Cc3c([nH]c4ccccc34)[C@H](c3ccc(Cl)nc3)N2C(=O)CN1[C@@H]1CCN(Cc2ccccc2)C1 [Compound 84t, (6S,12aR)-2-((R)-1-Benzyl-pyrrolidin-3-yl)-6-(6-chloro-pyridin-3-yl)-2,3,6,7,12,12a-hexahydro-pyrazino[1',2':1,6] pyrido[3,4-b]indole-1,4-dione] | 0.09 (≈ 0.171 µM) | 1.03 (≈ 1.96 µM) | –
CN(CCN1CC(=O)N2[C@H](c3ccc4c(c3)OCO4)c3[nH]c4ccccc4c3C[C@@H]2C1=O)Cc1ccccc1 [Compound 15, (6R,12aR)-6-Benzo[1,3]dioxol-5-yl-2-[2-(benzyl-methyl-amino)-ethyl]-2,3,6,7,12,12a-hexahydro-pyrazino[1',2':1,6]pyrido [3,4-b]indole-1,4-dione] | 0.6 (≈ 1.15 µM) | 0.4 (≈ 0.765 µM) | –
O=C1[C@H]2Cc3c([nH]c4ccccc34)[C@H](c3ccc4c(c3)OCO4)N2C(=O)CN1[C@@H]1CCN(Cc2ccccc2)C1 [Compound 14, (6S,12aR)-6-Benzo[1,3]dioxol-5-yl-2-((R)-1-benzyl-pyrrolidin-3-yl)-2,3,6,7,12,12a-hexahydro-pyrazino[1',2':1,6]pyrido [3,4-b]indole-1,4-dione] | 0.29 (≈ 0.542 µM) | 1.03 (≈ 1.93 µM) | –
CCN(CC)CCCC(C)Nc1ccnc2cc(Cl)ccc12 (stereo not drawn) [Chloroquine, reference compound] | – | – | IC50 (P. falciparum K1 strain; K1): 0.13 to 0.21 µg/mL (≈ 0.406 to 0.656 µM)
CN(CCCN1CC(=O)N2[C@@H](c3ccc4c(c3)OCO4)c3[nH]c4ccccc4c3C[C@@H]2C1=O)Cc1ccccc1 [Compound 18, (6S,12aR)-6-Benzo[1,3]dioxol-5-yl-2-[3-(benzyl-methyl-amino)-propyl]-2,3,6,7,12,12a-hexahydro-pyrazino[1',2':1,6]pyrido [3,4-b]indole-1,4-dione] | – | – | IC50 [1]: 1.34 µg/mL (≈ 2.5 µM); IC50 (P. falciparum K1 strain; K1, read-out: IC50 K1 (µg/ml)): 0.28 µg/mL (≈ 0.522 µM)
O=C1[C@H]2Cc3c([nH]c4ccccc34)[C@@H](c3ccc(Cl)nc3)N2C(=O)CN1[C@@H]1CCN(Cc2ccccc2)C1 [Compound 84c, (6R,12aR)-2-((R)-1-Benzyl-pyrrolidin-3-yl)-6-(6-chloro-pyridin-3-yl)-2,3,6,7,12,12a-hexahydro-pyrazino[1',2':1,6] pyrido[3,4-b]indole-1,4-dione] | 0.07 (≈ 0.133 µM) | 0.11 (≈ 0.209 µM) | Activity at the dose 50 mg/kg (%) [2]: 9.1%
O=C1[C@H]2Cc3c([nH]c4ccccc34)[C@H](Cc3ccccc3)N2C(=O)CN1C1CCN(Cc2ccccc2)CC1 [Compound 89t, (6S,12aR)-6-Benzyl-2-(1-benzyl-piperidin-4-yl)-2,3,6,7,12,12a-hexahydro-pyrazino[1',2':1,6]pyrido[3,4-b]indole-1,4-dione] | 4.17 (≈ 8.04 µM) | 2.47 (≈ 4.76 µM) | –
O=C1[C@H]2Cc3c([nH]c4ccccc34)[C@@H](c3ccc4c(c3)OCO4)N2C(=O)CN1[C@@H]1CCN(Cc2ccccn2)C1 [Compound 27, (6R,12aR)-6-Benzo[1,3]dioxol-5-yl-2-((R)-1-pyridin-2-ylmethyl-pyrrolidin-3-yl)-2,3,6,7,12,12a-hexahydro-pyrazino [1',2':1,6]pyrido[3,4-b]indole-1,4-dione] | 0.08 (≈ 0.149 µM) | 0.2 (≈ 0.373 µM) | Activity at the dose 50 mg/kg (%) [2]: 10%
CC(C)(C)OC(=O)NCCN1CC[C@@H](N2CC(=O)N3[C@H](c4ccc5c(c4)OCO5)c4[nH]c5ccccc5c4C[C@@H]3C2=O)C1 [Compound 35, {2-[(R)-3-((6R,12aR)-6-Benzo[1,3]dioxol-5-yl-1,4-dioxo-3,4,6,7,12,12a-hexahydro-1H-pyrazino[1',2':1,6]pyrido[3,4-b]indol-2-yl)-pyrrolidin-1-yl]-ethyl)-carbamic acid tert-butyl ester] | 0.07 (≈ 0.119 µM) | 0.015 (≈ 0.0255 µM) | –
O=C1[C@H]2Cc3c([nH]c4ccccc34)[C@@H](c3ccc4c(c3)OCO4)N2C(=O)CN1C1CCN(Cc2ccccc2)CC1 [Compound 10, (6R,12aR)-6-Benzo[1,3]dioxol-5-yl-2-(1-benzyl-piperidin-4-yl)-2,3,6,7,12,12a-hexahydro-pyrazino[1',2':1,6]pyrido[3,4-b]indole-1,4-dione] | 0.27 (≈ 0.492 µM) | 0.01 (≈ 0.0182 µM) | Activity at the dose 10 mg/kg (%) ([2]; 10 mg/kg every day for 4 days): 15%; Activity at the dose 50 mg/kg (%) [2]: 31%
CN(CCCN1CC(=O)N2[C@H](c3ccc4c(c3)OCO4)c3[nH]c4ccccc4c3C[C@@H]2C1=O)Cc1ccccc1 [Compound 17, (6R,12aR)-6-Benzo[1,3]dioxol-5-yl-2-[3-(benzyl-methyl-amino)-propyl]-2,3,6,7,12,12a-hexahydro-pyrazino[1',2':1,6]pyrido [3,4-b]indole-1,4-dione] | 0.98 (≈ 1.83 µM) | 0.19 (≈ 0.354 µM) | –
O=C1[C@H]2Cc3c([nH]c4ccccc34)[C@@H](c3ccc4c(c3)OCO4)N2C(=O)CN1[C@@H]1CCN(Cc2ccc3c(c2)OCO3)C1 [Compound 33, (6R,12aR)-6-Benzo[1,3]dioxol-5-yl-2-((R)-1-benzo[1,3]dioxol-5-ylmethyl-pyrrolidin-3-yl)-2,3,6,7,12,12a-hexahydro-pyrazino[1',2':1,6]pyrido[3,4-b]indole-1,4-dione] | 0.17 (≈ 0.294 µM) | 0.16 (≈ 0.277 µM) | –
Cn1ccnc1CN1CCC(N2CC(=O)N3[C@H](Cc4c([nH]c5ccccc45)[C@@H]3Cc3ccccc3)C2=O)CC1 [Compound 91t, (6S,12aR)-6-Benzyl-2-[1-(1-methyl-1H-imidazol-2-ylmethyl)-piperidin-4-yl]-2,3,6,7,12,12a-hexahydro-pyrazino-[1',2':1,6]pyrido[3,4-b]indole-1,4-dione] | 4.13 (≈ 7.9 µM) | 4.07 (≈ 7.79 µM) | –
COc1ccc(CN2CC[C@@H](N3CC(=O)N4[C@H](c5ccc6c(c5)OCO6)c5[nH]c6ccccc6c5C[C@@H]4C3=O)C2)cc1 [Compound 31, (6R,12aR)-6-Benzo[1,3]dioxol-5-yl-2-[(R)-1-(4-methoxy-benzyl)-pyrrolidin-3-yl]-2,3,6,7,12,12a-hexahydro-pyrazino[1',2':1,6]pyrido[3,4-b]indole-1,4-dione] | 0.23 (≈ 0.407 µM) | 0.13 (≈ 0.23 µM) | –
O=C1[C@H]2Cc3c([nH]c4ccccc34)[C@H](c3ccc4nsnc4c3)N2C(=O)CN1[C@@H]1CCN(Cc2ccccc2)C1 [Compound 70t, (6S,12aR)-6-Benzo[1,2,5]thiadiazol-5-yl-2-((R)-1-benzyl-pyrrolidin-3-yl)-2,3,6,7,12,12a-hexahydro-pyrazino[1',2':1,6] pyrido[3,4-b]indole-1,4-dione] | 0.7 (≈ 1.28 µM) | 0.5 (≈ 0.911 µM) | –
CN(CCN1CC(=O)N2[C@@H](c3ccc4c(c3)OCO4)c3[nH]c4ccccc4c3C[C@@H]2C1=O)Cc1ccccc1 [Compound 16, (6S,12aR)-6-Benzo[1,3]dioxol-5-yl-2-[2-(benzyl-methyl-amino)-ethyl]-2,3,6,7,12,12a-hexahydro-pyrazino[1',2':1,6]pyrido [3,4-b]indole-1,4-dione] | – | – | IC50 [1]: 0.3 µg/mL (≈ 0.574 µM); IC50 (P. falciparum K1 strain; K1, read-out: IC50 K1 (µg/ml)): 0.6 µg/mL (≈ 1.15 µM)
O=C1[C@H]2Cc3c([nH]c4ccccc34)[C@@H](c3ccccc3)N2C(=O)CN1C1CCN(Cc2ccccc2)CC1 [Compound 90, (6R,12aR)-2-(1-Benzyl-piperidin-4-yl)-6-phenyl-2,3,6,7,12,12a-hexahydro-pyrazino[1',2':1,6]pyrido[3,4-b]indole-1,4-dione] | 0.48 (≈ 0.951 µM) | 0.3 (≈ 0.594 µM) | –
O=C1[C@H]2Cc3c([nH]c4ccccc34)[C@@H](c3ccc4nsnc4c3)N2C(=O)CN1[C@@H]1CCN(Cc2ccccc2)C1 [Compound 70c, (6R,12aR)-6-Benzo[1,2,5]thiadiazol-5-yl-2-((R)-1-benzyl-pyrrolidin-3-yl)-2,3,6,7,12,12a-hexahydro-pyrazino[1',2':1,6] pyrido[3,4-b]indole-1,4-dione] | 0.13 (≈ 0.237 µM) | 0.15 (≈ 0.273 µM) | –
